This assay has as its target T1, HIV-integrase (Human immunodeficiency virus type 1 group M subtype B, UniProt P12497).
T1 construct: Recombinant integrase (0.26 ng) was incubated with the beads
The assay can be described thus: HIV-Integrase Inhibition Activity (SPA strand transfer assay). The format is biochemical. The note with it: recombinant integrase, SPA beads, P33 labeled target DNA; read-out: Activity (IC50 class, HIV-integrase inhibition). How it is done:
HIV-Integrase InhibitionActivity. To evaluate in-vitro activity against HIV-integrase, 5 pmole of biotin labeled substrate DNA was bound to 100 μg of Streptavidin coated PVT SPA beads (Amersham Pharmacia Biotech). Recombinant integrase (0.26 ng) was incubated with the beads for 90 min at 37° C. Unbound enzyme was removed by washing the complex followed by addition of inhibitors and 0.1 fmol of P33 labeled target DNA. The reaction was stopped by adding EDTA to a final concentration of 10 mM. Samples were counted in TopCountNXT (Packard) and the CPM was used as a measure of integration. The reaction condition was as described in A. Engelman and R. Craigie, J. Virol. 69, 5908-5911 (1995). The sequences of substrate and target DNA were described in Nucleic Acid Research 22, 1121-1122 (1994). Activity equal to A refers to a compound having IC50=0.002 to 0.10 μM while B and C denote compounds having IC50=0.1 to 1.0 μM and IC50≧1.0 μM respectively.

Turning to `Cc1cc(C#N)c(CNC(=O)c2nc3n(c(=O)c2O)CCOC3(C)C)s1` [Example 34, Pyrimido[2,1-c][1,4]oxazine-2-carboxamide, N-[(3-cyano-5-methyl-2-thienyl)methyl]-4,6,7,9-tetrahydro-3-hydroxy-9,9-dimethyl-4-oxo-], the half-inhibitory concentration (IC50) is 2 to 100 nM.
Under `CC1=CC=C(CNC(=O)c2nc3n(c(=O)c2O)CCOC3(C)C)S1(=O)=O` [Example 35, Pyrimido[2,1-c][1,4]oxazine-2-carboxamide, 4,6,7,9-tetrahydro-3-hydroxy-9,9-dimethyl-N-[(5-methyl-1,1-dioxido-2-thienyl)methyl]-4-oxo-] stands no less than 1000 nM; under `CC1(C)OCCn2c1nc(C(=O)NCc1ccsc1)c(O)c2=O` [Example 36, Pyrimido[2,1-c][1,4]oxazine-2-carboxamide, 4,6,7,9-tetrahydro-3-hydroxy-9,9-dimethyl-4-oxo-N-(3-thienylmethyl)-], 2 to 100 nM; under `Cc1ccc(CNC(=O)c2nc3n(c(=O)c2O)CCOC3(C)C)o1` [Example 37, Pyrimido[2,1-c][1,4]oxazine-2-carboxamide, 4,6,7,9-tetrahydro-3-hydroxy-9,9-dimethyl-N-[(5-methyl-2-furanyl)methyl]-4-oxo-], 2 to 100 nM.
The figure for `CC1(C)OCCn2c1nc(C(=O)NCc1ccco1)c(O)c2=O` [Example 38, Pyrimido[2,1-c][1,4]oxazine-2-carboxamide, N-(2-furanylmethyl)-4,6,7,9-tetrahydro-3-hydroxy-9,9-dimethyl-4-oxo-] is 2 to 100 nM; for `Cc1nn(C)c(C)c1CNC(=O)c1nc2n(c(=O)c1O)CCOC2(C)C` [Example 39, Pyrimido[2,1-c][1,4]oxazine-2-carboxamide, 4,6,7,9-tetrahydro-3-hydroxy-9,9-dimethyl-4-oxo-N-[(1,3,5-trimethyl-1H-pyrazol-4-yl)methyl]-] it is 100 to 1000 nM.
The figure for `CCn1cc(CNC(=O)c2nc3n(c(=O)c2O)CCOC3(C)C)cn1` [Example 65, Pyrimido[2,1-c][1,4]oxazine-2-carboxamide, N-[(1-ethyl-1H-pyrazol-4-yl)methyl]-4,6,7,9-tetrahydro-3-hydroxy-9,9-dimethyl-4-oxo-] is 100 to 1000 nM.
Consider `CC1(C)OCCn2c1nc(C(=O)NCc1cc(C(=O)O)co1)c(O)c2=O` [Example 75, 3-Furancarboxylic acid, 5-[[[(4,6,7,9-tetrahydro-3-hydroxy-9,9-dimethyl-4-oxopyrimido[2,1-c][1,4]oxazin-2-yl)carbonyl]amino]methyl]], for which the IC50 is no less than 1000 nM.
Regarding `CC1(C)OCCn2c1nc(C(=O)NCC1Cc3ccccc3O1)c(O)c2=O` (stereo not drawn) [Example 76, N-(2,3-dihydro-1-benzofuran-2-ylmethyl)-3-hydroxy-9,9-dimethyl-4-oxo-4,6,7,9-tetrahydropyrimido[2,1-c][1,4]oxazine-2-carboxamide], the half-inhibitory concentration (IC50) is 2 to 100 nM.
Under `Cc1ccc(CNC(=O)c2nc3n(c(=O)c2O)CCN(C)C32CCC2)o1` [Example 77, 3′-Hydroxy-8′-methyl-N-((5-methyl-2-furyl)methyl)-4′-oxo-7′,8′-dihydro-4′H,6′H-spiro[cyclobutane-1,9′-pyrazino[1,2-a]pyrimidine]-2′-carboxamide] stands 2 to 100 nM; under `CC1(C)OCCn2c1nc(C(=O)NCc1nn(S(C)(=O)=O)c3ccccc13)c(O)c2=O` [Example 78, 3-Hydroxy-9,9-dimethyl-N-((1-(methylsulfonyl)-1H-indazol-3-yl)methyl)-4-oxo-4,6,7,9-tetrahydropyrimido[2,1-c][1,4]oxazine-2-carboxamide], 2 to 100 nM.
Turning to `COC(=O)n1nc(CNC(=O)c2nc3n(c(=O)c2O)CCOC3(C)C)c2ccccc21` [Example 79, Methyl 3-((((3-hydroxy-9,9-dimethyl-4-oxo-4,6,7,9-tetrahydropyrimido[2,1-c][1,4]oxazin-2-yl)carbonyl)amino)methyl)-1H-indazole-1-carboxylate], the IC50 is 2 to 100 nM.
The figure for `CNC(=O)n1nc(CNC(=O)c2nc3n(c(=O)c2O)CCOC3(C)C)c2ccccc21` [Example 80, 3-Hydroxy-9,9-dimethyl-N-((1-(methylcarbamoyl)-1H-indazol-3-yl)methyl)-4-oxo-4,6,7,9-tetrahydropyrimido[2,1-c][1,4]oxazine-2-carboxamide] is 2 to 100 nM; for `CC(=O)n1nc(CNC(=O)c2nc3n(c(=O)c2O)CCOC3(C)C)c2ccccc21` [Example 81, N-((1-Acetyl-1H-indazol-3-yl)methyl)-3-hydroxy-9,9-dimethyl-4-oxo-4,6,7,9-tetrahydropyrimido[2,1-c][1,4]oxazine-2-carboxamide] it is 2 to 100 nM; for `Cc1ccc(CNC(=O)c2nc3n(c(=O)c2O)CCCC32CCC2)o1` [Example 82, 3′-Hydroxy-N-((5-methyl-2-furyl)methyl)-4′-oxo-7′,8′-dihydro-4′H,6′H-spiro[cyclobutane-1,9′-pyrido[1,2-a]pyrimidine]-2′-carboxamide] it is 2 to 100 nM.
Under `Cc1csc(CNC(=O)c2nc3n(c(=O)c2O)CCCC32CCC2)c1` [Example 83, 3′-Hydroxy-N-((4-methyl-2-thienyl)methyl)-4′-oxo-7′,8′-dihydro-4′H,6′H-spiro[cyclobutane-1,9′-pyrido[1,2-a]pyrimidine]-2′-carboxamide] stands 2 to 100 nM.
As to `Cc1ccc(CNC(=O)c2nc3n(c(=O)c2O)CCCC32CCC2)s1` [Example 84, 3′Hhydroxy-N-((5-methyl-2-thienyl)methyl)-4′-oxo-7′,8′-dihydro-4′H,6′H-spiro[cyclobutane-1,9′-pyrido[1,2-a]pyrimidine]-2′-carboxamide], the IC50 lay within 2 to 100 nM.
Under `Cc1nnc(CNC(=O)c2nc3n(c(=O)c2O)CCOC3(C)C)o1` [Example 86, 3-Hydroxy-9,9-dimethyl-N-((5-methyl-1,3,4-oxadiazol-2-yl)methyl)-4-oxo-4,6,7,9-tetrahydropyrimido[2,1-c][1,4]oxazine-2-carboxamide] stands no less than 1000 nM.
The figure for `CSc1ccc(CNC(=O)c2nc3n(c(=O)c2O)CCOC3(C)C)o1` [Example 87, 3-Hydroxy-9,9-dimethyl-N-((5-(methylthio)furan-2-yl)methyl)-4-oxo-4,6,7,9-tetrahydropyrimido[2,1-c][1,4]oxazine-2-carboxamide] is 2 to 100 nM; for `CC1(C)OCCn2c1nc(C(=O)NCc1ccc(S(C)(=O)=O)o1)c(O)c2=O` [Example 88, 3-Hydroxy-9,9-dimethyl-N-((5-(methylsulfonyl)furan-2-yl)methyl)-4-oxo-4,6,7,9-tetrahydropyrimido[2,1-c][1,4]oxazine-2-carboxamide] it is 100 to 1000 nM.
Under `CC1(C)OCCn2c1nc(C(=O)NCc1cc(-c3ccccc3)no1)c(O)c2=O` [Example 89, 3-Hydroxy-9,9-dimethyl-4-oxo-N-((3-phenyl-5-isoxazolyl)methyl)-4,6,7,9-tetrahydropyrimido[2,1-c][1,4]oxazine-2-carboxamide] stands no less than 1000 nM; under `CC1(C)OCCn2c1nc(C(=O)NCc1nc3c(s1)CCCCC3)c(O)c2=O` [Example 90, 3-Hydroxy-9,9-dimethyl-4-oxo-N-(5,6,7,8-tetrahydro-4H-cyclohepta[d][1,3]thiazol-2-ylmethyl)-4,6,7,9-tetrahydropyrimido[2,1-c][1,4]oxazine-2-carboxamide], 2 to 100 nM; under `Cc1cccc(-n2cc(CNC(=O)c3nc4n(c(=O)c3O)CCOC4(C)C)cn2)c1` [Example 91, 3-Hydroxy-9,9-dimethyl-N-((1-(3-methylphenyl)-1H-pyrazol-4-yl)methyl)-4-oxo-4,6,7,9-tetrahydropyrimido[2,1-c][1,4]oxazine-2-carboxamide], no less than 1000 nM.
For the compound `CC1(C)OCCn2c1nc(C(=O)NCc1nc3ccccc3s1)c(O)c2=O` [Example 92, N-(1,3-Benzothiazol-2-ylmethyl)-3-hydroxy-9,9-dimethyl-4-oxo-4,6,7,9-tetrahydropyrimido[2,1-c][1,4]oxazine-2-carboxamide], the IC50 is 2 to 100 nM.
The figure for `CCCn1ccc(CNC(=O)c2nc3n(c(=O)c2O)CCOC3(C)C)n1` [Example 93, 3-Hydroxy-9,9-dimethyl-4-oxo-N-((1-propyl-1H-pyrazol-3-yl)methyl)-4,6,7,9-tetrahydropyrimido[2,1-c][1,4]oxazine-2-carboxamide] is 100 to 1000 nM; for “Pyrimido[2,1-c][1,4]oxazine-2- carboxamide, 4,6,7,9-tetrahydro-3- hydroxy-9,9-dimethyl-4-oxo-N- (1H-pyrazol-3-ylmethyl)- [Example 69]” it is 100 to 1000 nM; for “Pyrimido[2,1-c][1,4]oxazine-2- carboxamide, 4,6,7,9-tetrahydro-3- hydroxy-9,9-dimethyl-4-oxo-N- [(2,3,6,7-tetrahydro-1,3,7- trimethyl-2,6-dioxo-1H-purin-8- yl)methyl]- [Example 60]” it is no less than 1000 nM.
The figure for “Pyrimido[2,1-c][1,4]oxazine-2- carboxamide, 4,6,7,9-tetrahydro-3- hydroxy-9,9-dimethyl-4-oxo-N-[2- (2-thienyl)ethyl]- [Example 53]” is 100 to 1000 nM.
For “Pyrimido[2,1-c][1,4]oxazine-2- carboxamide, 4,6,7,9-tetrahydro-3- hydroxy-9,9-dimethyl-N-[2-(5- methyl-1H-indol-3-yl)ethyl]-4-oxo- [Example 58]”, the IC50 was in the range of 100 to 1000 nM.
As to “Pyrimido[2,1-c][1,4]oxazine-2- carboxamide, 4,6,7,9-tetrahydro-3- hydroxy-9,9-dimethyl-N-[(1- methyl-1H-pyrrol-2-yl)methyl]-4- oxo [Example 47]”, the half-inhibitory concentration (IC50) fell in the range of 100 to 1000 nM.

One may read the IC50 as the point on the concentration scale where inhibition reaches its midpoint.

These data come from US7893055B2, “HIV integrase inhibitors” (priority 2006, dated 2011).
